Test system: HCT-8 cells
Assay: WST-1 cytotoxicity assay in HCT-8 cells
Assay type: cell-based, human
Details: 24 h, read-out: Mean IC50 ± SEM, Cytotoxicity
Method: Compounds were tested for cytotoxicity in human ileocecal colorectal adenocarcinoma cells (HCT-8) (ATCC CCL-244; RRID:CVCL_2478) by using the cell proliferation reagent WST-1 (Roche) according to the manufacturer’s protocol. The WST-1 assay is a quantitative colorimetric assay for measurement of metabolically active cells. This assay is based on the reduction of the tetrazolium salt (WST-1) by viable cells. About 5 × 10^4 HCT-8 cells were seeded per well in 96-well plates and grown overnight in 200 μL of RPMI 1640 medium (without phenol red; Gibco) supplemented with 2.5 g/L of glucose, 1 mM sodium pyruvate, 1.5 g/L of sodium bicarbonate, 10% heat-inactivated FBS (Gibco), and 1× antibiotic-antimycotic (Gibco) at 37°C with 5% CO2 in a humidified incubator. Upon reaching 80 to 90% confluence, cells were treated with various concentrations of the test compounds for 24 h. Control wells received equivalent volumes of DMSO used in the reconstituted compounds. After 24 h of culture, 10 μL of the WST-1 reagent was added to each well, and the plates were incubated in the dark for 1 h at 37°C with 5% CO2. The plates were well agitated, and 150 μL of the medium from each well was transferred to a new clear flat-bottomed black 96-well plate (Corning). The absorbance was read at a test wavelength of 440 nm and a reference wavelength of 690 nm using a multimode microplate reader (Spectra Max iD3; Molecular Devices, USA). All of the reactions were prepared in triplicate. The dose-response curves were generated by nonlinear regression analysis with GraphPad PRISM software using control-normalized data to determine the half-maximal cytotoxicity (IC50) concentrations.

SMILES | IC50
COc1ccc(-c2c(C)c(C(=O)O)nc(-c3ccc4c(O)c(OC)c5c(c4n3)=NC(C)(C)N=5)c2N)c(O)c1OC [NSC62709] | 299 ± 6.27 µM
COc1cc(C)c2c(c1C=O)Oc1c(c(C)c(O)c3c1C(O)OC3=O)OC2=O (centres unmarked) [NSC87511] | 172 ± 8.68 µM
CO[C@H]1/C=C/O[C@@]2(C)Oc3c(C)c(O)c4c(O)c(cc(O)c4c3C2=O)NC(=O)/C(C)=C\C=C\[C@H](C)[C@H](O)[C@@H](C)[C@@H](O)[C@@H](C)[C@H](OC(C)=O)[C@@H]1C [NSC133100] | 102 ± 16.6 µM
CO[C@@H]1/C=C\O[C@]2(C)Oc3c(C)c(O)c4c(O)c(c(CN(C)C)c(O)c4c3C2=O)NC(=O)/C(C)=C\C=C[C@@H](C)[C@@H](O)[C@H](C)[C@@H](O)[C@H](C)[C@H](OC(C)=O)[C@@H]1C [NSC145612] | 302 ± 9.33 µM
CO[C@@H]1/C=C/O[C@@]2(C)Oc3c(C)c(O)c4c(c3C2=O)C(=N[C@@H]2CC[C@@H](O)O[C@H]2C)C=C(NC(=O)/C(C)=C\C(=O)[C@@H]2C[C@@H]2[C@H](O)[C@@H](C)[C@@H](O)[C@@H](C)[C@H](OC(C)=O)[C@@H]1C)C4=O [NSC177383] | 85.5 ± 2.77 µM

— publication PMC10269165 (Antimicrobial Agents and Chemotherapy, 2023)
